Source: US20210087337A1, “COMPOUNDS, COMPOSITIONS AND METHODS RELATED TO ANTIMICROBIAL APPLICATIONS” (VYOME THERAPEUTICS LIMITED, priority 2016, published 2021)
Values after ≈ are worked out from the molar mass of the structure shown. Like-named read-outs stand apart in the source and are kept apart here.

Columns and labels:
HaCat cell line = test: Cytotoxicity MTT assay; assay type: cell-based, human
Procedure: Different dilutions of compounds of the present disclosure in DMSO were used for the MTT assay so that the final concentration of DMSO in the assay was <5%. […] After 3 h incubation, MTT was removed and 100 μl of DMSO was added. Absorbance was measured in an ELISA reader at 570 nm. The assay controls were (a) medium control (medium without cells), (b) negative control (medium with cells but without the experimental compound), (iii) positive control (medium with cells and with 50 μM camptothecin). The experiment was done in triplicates and the data plotted as viability of cells in percentage.

[1] = system: S. epidermidis ATCC 35984 biofilm; test: S. epidermidis biofilm disruption assay (MTT); assay type: cell-based; conditions: for EC50: Staphylococcus epidermidis, ATCC35984, read-out: Concentration (mg/ml) to disrupt 50% biofilm
Procedure: Materials: Brain heart infusion broth, S. epidermidis ATCC 35984, 96 well plates, Autoclave, Incubator, 0.05% MTT (3-(4,5-Dimethylthiazol-2-yl)-2,5-Diphenyltetrazolium Bromide) reagent prepared in water, Multiwell Plate Reader.
(§1) Method: S. epidermidis ATCC 35984 was grown in Brain Heart Infusion Agar (BHIA) at 37° C. for 24 h. The loop full of bacterial culture was suspended in sterile water and adjusted the turbidity to 0.1 OD at 600 nm in UV—Visual spectrophotometer (approximately 1.5×10^8) and further diluted (100 times with sterile BHI broth), 100 μL of culture suspension was added into 96 well plate and plates were incubated at 37° C. for 48 h for biofilm formation. The biofilm was washed twice with sterile water to remove the planktonic cells. Then biofilm was treated with 100 μL of BHI broth suspended with various concentrations of compounds of the present disclosure, and plates were further incubated at 37° C. for 24 h. The minimum biofilm disruption concentration (MBDC) was determined by staining the biofilm with MTT reagent incubated plates at 37° C. for 2 h. The precipitate was dissolved in 100 μl of dimethyl sulfoxide (DMSO) and the absorbance was measured at 600 nm in multi well plate reader. The minimum biofilm disruption concentration was calculated as subtracting the MTT OD value of drug treated with 48 h growth control.

[2] = system: biofilm formed by gram positive, gram negative pathogen; test: Biofilm disruption activity, general statement; assay type: cell-based; conditions: embodiment statement
Procedure: as §1
(§2) Method: E. coli ATCC BAA196 was grown in Brain Heart Infusion Agar (BHIA) at 37° C. for 24 h. The loop full of bacterial culture was suspended in sterile water and the turbidity to 0.1 OD at 600 nm in UV—Visual spectrophotometer (approximately 1.5×10^8) and further diluted (100 times with sterile BHI broth+1% glucose), 100 μL of culture suspension was added into 96 well plate and plates were incubated at 37° C. for 24 h for biofilm formation. The biofilm was washed twice with sterile water to remove the planktonic cells. Then biofilm was treated with 100 μL of BHI broth+1% glucose suspended with various concentrations of compounds of the present disclosure, and plates were further incubated at 37° C. for 24 h. The minimum biofilm disruption concentration (MBDC) was determined by staining the biofilm with MTT reagent incubated plates at 37° C. for 2 h, and the precipitate was dissolved in 100 μl of dimethyl sulfoxide (DMSO) and the absorbance was measured at 600 nm in multi well plate reader. The minimum biofilm disruption concentration was calculated by subtracting the MTT OD value of drug treated with 24 h growth control.

[3] = system: E. coli ATCC BAA196 biofilm; test: E. coli biofilm disruption assay (MTT); assay type: cell-based; conditions: for Minimum biofilm disruption concentration: 24 h biofilm, 24 h treatment, MTT
Procedure: Materials: Brain heart infusion broth+1% glucose, Escherichia coli ATCC BAA196, 96 wells plate, Autoclave, Incubator, MTT, Multiwell Plate Reader.
as §2

[4] = system: S. epidermidis (ATCC-35984); test: MIC by micro broth dilution (CLSI); assay type: cell-based
Procedure: (§3) Materials: Brain heart infusion broth, Bacterial and fungal cultures, 96 wells plate, Autoclave, Incubator. The microbial strains used in the validation study/testing were procured from MTCC (Chandigarh, India)—S. aureus (MTCC-6908), E. coli (MTCC-1687); NCIM (Pune, India)—E. aerogenes (NCIM-5139); ATCC (USA): S. aureus (ATCC-43300), S. epidermidis (ATCC-35984), P. aeruginosa (ATCC-27853), A. baumanii (ATCC-19606), K. pneumoniae (ATCC-13883), E. coli (ATCC-BAA196); CCARM (Korea)—Candida albicans (CCARM-14009), P. aeruginosa (CCARM-2161) and A. baumanii (CCARM-12001).
(§4) Method: MIC of present molecules were determined by micro broth dilution method as per the Clinical and Laboratory Standards Institute (CLSI) guidelines. Microbial strains were cultured in appropriate media [Brain Heart Infusion Agar (BHIA) for bacteria and Sabouraud dextrose broth (SDB) for Candida] at 37° C. for 24 hours. […] For inoculum, microbial culture turbidity was adjusted to 0.1 optical density (OD) at 600 nm in UV—Visual spectrophotometer (approximately 1.5×10^8 cells/ml) and further diluted (100 times with sterile media). Diluted culture suspension (100 μl) was added to each well except sterility control wells (column 12 of 96 well plate). Column 11 of 96 well plate was used as growth control and vehicle control. The plates were incubated at 37° C. for 24 h. The MIC of the test compounds were determined by observing the lowest concentration of test compound that prevented the visual bacterial growth.

[5] = system: Candida albicans (CCARM-14009); test: MIC by micro broth dilution (CLSI); assay type: cell-based; conditions: for MIC: C. albicans CCARM 14009
Procedure: as §3, §4

S. aureus (MTCC-6908) = test: MIC by micro broth dilution (CLSI); assay type: cell-based
Procedure: as §3, §4

S. epidermidis S12-1 = test: MIC by micro broth dilution (CLSI); assay type: cell-based; conditions: Staphylococcus epidermidis, S121
MRSA = test: MIC test, text summary against MRSA; assay type: cell-based, S. aureus
Procedure: as §3
as §4, with “Column 11 of 96 well plate was used as growth control and vehicle control. The plates were incubated at 37° C. for 24 h.” left out

[6] = Water solubility as described; assay type: physicochemical
E. coli = test: MIC test, text summary against E. coli (strain not stated); assay type: cell-based
Procedure: as §3
as §4, with “Column 11 of 96 well plate was used as growth control and vehicle control. The plates were incubated at 37° C. for 24 h.” left out

[7] = system: Bacterial and fungal cultures; test: MIC test, overall antimicrobial activity in words; assay type: cell-based; conditions: overall statement on MIC results
Procedure: as §3
as §4, with “Column 11 of 96 well plate was used as growth control and vehicle control. The plates were incubated at 37° C. for 24 h.” left out

S. aureus (ATCC-43300) = test: MIC by micro broth dilution (CLSI); assay type: cell-based
Procedure: as §3, §4

[8] = system: P. aeruginosa (ATCC-27853); test: MIC by micro broth dilution (CLSI); assay type: cell-based
Procedure: as §3, §4

E. coli (MTCC-1687) = test: MIC by micro broth dilution (CLSI); assay type: cell-based
Procedure: as §3, §4

E. coli (ATCC-BAA196) = test: MIC by micro broth dilution (CLSI); assay type: cell-based
Procedure: as §3, §4

[9] = system: A. baumannii [ATCC 19606]; test: MIC by micro broth dilution (CLSI); assay type: cell-based
Procedure: as §3, §4

E. aerogenes (NCIM-5139) = test: MIC by micro broth dilution (CLSI); assay type: cell-based
Procedure: as §3, §4

[10] = system: K. pneumoniae [ATCC 1388]; test: MIC by micro broth dilution (CLSI); assay type: cell-based
Procedure: as §3, §4

Gram negative pathogens = test: MIC test, against Gram negative pathogens; assay type: cell-based
Procedure: as §3
as §4, with “Column 11 of 96 well plate was used as growth control and vehicle control. The plates were incubated at 37° C. for 24 h.” left out

Gram positive pathogen = test: MIC test, text summary against Gram positive pathogens; assay type: cell-based
Procedure: as §3
as §4, with “Column 11 of 96 well plate was used as growth control and vehicle control. The plates were incubated at 37° C. for 24 h.” left out

[11] = 48 h biofilm, 24 h treatment, MTT
[12] = Staphylococcus epidermidis, ATCC35984, read-out: MIC
[13] = Candida albicans, CCARM14009, read-out: MIC
[14] = Staphylococcus aureus, MTCC6908, read-out: MIC

N=C(NCCCCCCNC(=N)NC(=N)Nc1ccc(Cl)cc1)NC(=N)Nc1ccc(Cl)cc1 [Chlorohexidine, reference compound]
IC50 in HaCat cell line (HaCat cell line; 48 h, MTT): ~200 µg/mL (≈ 396 µM)

CC(=O)N[C@@H](CS)C(=O)O [NAC, N-acetyl cysteine, reference compound]
EC50 [1, 11]: > 4 mg/mL

CCCCCCCCCCCCSC[C@H](NC(C)=O)C(=O)O [SMP-001, N-Acetyl-S-dodecyl-L-cysteine]
biofilm disruption activity [2]: biofilm disruption activity | anti-biofilm activity against S. epidermidis [1]: destroy biofilm effectively | EC50 [1, 11]: 0.02 to 0.125 mg/mL (≈ 60.3 to 377 µM) | Minimum biofilm disruption concentration [3]: 0.5 to 2.0 mg/mL

CCCCCCCCCCCCSC[C@@H](NC(C)=O)C(=O)N(CCCN)CCCN.Cl.Cl [SMP-002, (S)-2-Acetamido-N,N-bis(3-aminopropyl)-3-(dodecylthio)propanamide di-hydrochloride]
biofilm disruption activity [2]: biofilm disruption activity | anti-biofilm activity against S. epidermidis [1]: maintain anti-biofilm activity like SMP-001 | EC50 [1, 11]: 0.01 mg/mL | MIC [4, 12]: 8 to 13 µg/mL | MIC [5, 13]: 100 µg/mL | MIC (S. aureus (MTCC-6908); [14]): 25 µg/mL | MIC (S. epidermidis S12-1): 25 µg/mL | Minimum biofilm disruption concentration [3]: 2 to 4 mg/mL

CCCCCCCCC/C=C\CCCCCCCCSC[C@@H](NC(C)=O)C(=O)N(CCCN)CCCN.Cl.Cl [SMP-047, (S,Z)-2-Acetamido-N,N-bis(3-aminopropyl)-3-(nonadec-9-en-1-ylthio)propanamide di-hydrochloride]
antibacterial activity against MRSA (MRSA): potent antibacterial activity | water solubility [6]: water soluble | biofilm disruption activity [2]: biofilm disruption activity | EC50 [1, 11]: > 2 mg/mL | activity towards resistant E. coli (E. coli): potent | antimicrobial / antibacterial activity [7]: broad spectrum antibacterial activity | MIC (S. aureus (ATCC-43300); Staphylococcus aureus, ATCC43300, read-out: MIC): 6.25 µg/mL | MIC ([8]; Pseudomonas aeruginosa, ATCC27853, read-out: MIC): > 256 µg/mL | MIC [4, 12]: 6.25 µg/mL | antifungal activity against Candida species [5]: potent antifungal activity | MIC [5, 13]: 50 µg/mL | MIC (E. coli (MTCC-1687); Escherichia coli, MTCC1687, read-out: MIC): 0.8 µg/mL | MIC (E. coli (ATCC-BAA196); Escherichia coli, ATCCBAA196, read-out: MIC): 100 µg/mL | MIC (S. aureus (MTCC-6908); [14]): 6.25 µg/mL | MIC ([9]; Acinetobacter baumannii, ATCC19606, read-out: MIC): > 256 µg/mL | MIC (E. aerogenes (NCIM-5139); Klebsiella aerogenes, NCIM5139, read-out: MIC): > 256 µg/mL | MIC ([10]; Klebsiella pneumoniae, ATCC1388, read-out: MIC): > 256 µg/mL | IC50 (HaCat cell line; Homo sapiens, HaCaT, 48 h, MTT): 200 to 400 µg/mL | safety profile in HaCaT cell lines (HaCat cell line; compared with PHMB and chlorohexidine): better safety profile | MIC (S. epidermidis S12-1): 50 µg/mL

CCCCCCCCCCCCSC[C@@H](NC(C)=O)C(=O)N(CCCCNC(=O)[C@@H](N)CNC(=N)N)CCCNC(=O)[C@@H](N)CNC(=N)N.Cl [SMP-051]
activity against Gram negative pathogens (Gram negative pathogens): very efficient | improvement of antibacterial activity in comparison to SMP-002 (Gram negative pathogens; against Gram negative pathogen): 100-150 fold | improvement of antibacterial activity in comparison to SMP-002 (Gram positive pathogen): 10-20 fold | biofilm disruption activity [2]: biofilm disruption activity | Concentration (mg/ml) to disrupt 50% biofilm [1, 11]: >2 mg/mL | antimicrobial / antibacterial activity [7]: broad spectrum antibacterial activity | MIC (S. aureus (ATCC-43300)): 6.25 µg/mL | MIC [8]: 16.0 µg/mL | MIC [4]: 1.6 µg/mL | MIC [5]: 200 µg/mL | MIC (E. coli (MTCC-1687)): 1.6 µg/mL | MIC (E. coli (ATCC-BAA196)): 100 µg/mL | MIC (S. aureus (MTCC-6908)): 6.25 µg/mL | MIC [9]: 128.0 µg/mL | MIC (E. aerogenes (NCIM-5139)): 8.0 µg/mL | MIC [10]: 8.0 µg/mL | IC50 in HaCat cell line (HaCat cell line; 48 h, MTT): ~25.0 µg/mL | disruption of E. coli biofilm [3]: the best | Minimum biofilm disruption concentration [3]: 0.25 to 0.5 mg/mL
